Entries after “also recorded” stand apart in the source; their conditions may differ.
Assays:
blast-exposed rats = assay: Blast-induced tinnitus behavioral testing (gap detection and PPI, startle reflex), 3,6′-dithiothalidomide; assay type: in vivo, rat
Protocol: Each of the rats was subjected to blast exposure in the left ear using a shock tube (ORA Inc.) located at the Wayne State University Bioengineering Center. The blast exposure of each rat was performed under anesthesia with a mixture of air (1 liter/min) and isoflurane (5% v/v). The rat was placed on supportive netting with a metal surround and secured on a pole with its head facing the oncoming shockwave. During blast exposure, the rat's right ear was occluded with a silicone earplug (Mack's; McKeon Products, Warren, Mich.), followed by application of mineral oil to seal any remaining openings. The average energy under 10 kHz measured at 22 psi was equivalent to 150 kPa or 197.5 dB SPL. After blast exposure, each rat was transferred to a polycarbonate cage.
Thirty two rats from Example 10 were used. Behavioral tinnitus testing, including gap detection and PPI testing, was conducted with Hamilton-Kinder startle-reflex hardware and software. During behavioral testing, each rat was placed in an individual noise-attenuation chamber to perform gap and PPI testing. In the gap procedure, each rat was presented with a constant 60-dB SPL background noise composed of 2,000 Hz bandpass signals at 6-8, 10-12, 14-16, 18-20, or 26-28 kHz or broadband noise (BBN; 2-30 kHz). A 115 dB SPL, 50 ms noise-burst was used as the startle stimulus to induce the acoustic startle reflex. The background noise session contained two conditions, one condition was the startle only condition in which rat was presented with the startle stimulus alone, and the other condition was the gap condition in which a rat was presented with a startle stimulus preceded by a silent gap embedded within the background noise. Silent gaps were 40 ms in duration with a lead interval of 90 ms to the startle stimulus. The startle reflex of rats was measured in response to 3 conditions: 1) background noise alone, 2) startle only, and 3) gap. Detection of the gap results in a reduction in the startle amplitude. Development of tinnitus in a specific frequency band impairs gap detection in the corresponding gap-carrier band, and thus, the startle amplitude reaches amplitudes elicited without the gap. For the PPI procedure, the parameters were almost the same as with gap except that no background noise or silent gap was used. The startle amplitude of rats in response to the two conditions was measured: the startle-only condition and a prepulse followed by the startle stimulus. In the latter condition, a 60-dB SPL, 40-msec prepulse was introduced 90 msec before the startle stimulus. The acoustic startle reflex of the rat decreased in response to the prepulse except when the rat had hearing loss at a frequency similar to the prepulse.
Rats were exposed or sham-exposed to a blast shockwave. To determine whether TNF-α is involved in blast-induced tinnitus, the rats were injected once daily for 5 days with 3,6′-dithiothalidomide starting 7 days after blast exposure. Behavioral testing and ABR recordings started 1 day after drug injection and lasted for three weeks.

AC pyramidal neurons = assay: Patch clamp recording of miniature synaptic currents in AC slices after blast exposure; assay type: in vivo, rat
Protocol: Two groups of 7 rats each were exposed to blast shockwaves as described above, and an additional group of 7 rats was sham-exposed. One of the exposed groups was administered 3,6′-dithiothalidomide for five days starting on the day of the exposure, and the other exposed group was administered vehicle. Brain slides were prepared from the AC of the rats 10-20 days after the blast exposure. Pyramidal neurons were recorded using the patch clamp method. Miniature synaptic currents were recorded to assess the functional states of the excitatory and inhibitory synaptic transmission. Neurons were filled with biocytin, which was stained with immunocytochemistry to reveal the morphology of the recorded neurons.

[1] = test system: ionized calcium-binding adapter molecule 1 (Iba-1); assay: Iba-1 immunostaining densitometry of microglia after blast; assay type: in vivo, rat; conditions: immunostained microglia, FIG. 23A
Text: (§1) FIGS. 23A and 23B depict densitometry measurements of ionized calcium-binding adapter molecule 1 (Iba-1) and TNF-α expression, respectively, as observed by fluorescence microscopy of immunohistochemistry-stained microglia. […] Error bars in FIGS. 23A-23B depict standard deviation.

TNF-α = TNF-α immunostaining densitometry of microglia and astrocytes after blast; assay type: in vivo, rat
Text: as §1
(§2) FIGS. 24A and 24B depict densitometry measurements of glial fibrillary acidic protein (GFAP) and TNF-α expression, respectively, as observed by fluorescence microscopy of immunohistochemistry-stained AC astrocytes. […] The decrease in astrocyte TNF-α expression was relatively smaller than the decrease in microglial TNF-α expression (compare […] with FIG. 23B). […] Error bars in FIGS. 24A-24B depict standard deviation.

[2] = test system: glial fibrillary acidic protein (GFAP); assay: GFAP immunostaining densitometry of AC astrocytes after blast; assay type: in vivo, rat; conditions: immunostained AC astrocytes, FIG. 24B
Text: as §2

C75BL6 mice = assay: Noise-induced tinnitus, gap detection, 3,6′-dithiothalidomide; assay type: in vivo, mouse
Protocol: Tinnitus was assessed using the gap detection paradigm.
A group of C75BL6 mice underwent 4 days of gap detection testing. On the fifth day, the mice were exposed to 123-dB noise in their left ears for two hours, which was followed immediately by the administration of 3,6′-dithiothalidomide at a dose of 28 mg/kg. The drug was administered daily for five days. On day 10 post noise exposure, gap detection tests were resumed to test the animals' performance. Impaired gap detection compared to prenoise exposure performance is behavioral evidence of tinnitus.

Pyramidal neurons = assay: Patch clamp mIPSC and mEPSC in brain slices after noise exposure; assay type: in vivo, mouse
Protocol: Three groups of C75BL6 mice were used. Two were exposed to 123-dB noise in the left ear for two hours. Animals in one of the two exposed group were administered 3,6′-dithiothalidomide. The drug was administered daily for five days. The remaining third group underwent the same procedure but without noise exposure or drug administration. On day 10 post-noise exposure, animals were euthanized and brain slices were prepared. Pyramidal neurons in the brain slices were recorded as described above. Miniature inhibitory and excitatory synaptic transmissions (mIPSC and mEPSC) were examined.

In the case of O=C1NC(=S)CCC1N1C(=O)c2ccccc2C1=S (stereo not shown) [3,6′-dithiothalidomide], the “startle force of the startle-only condition, gap test” value (blast-exposed rats; acute tinnitus rats, 56 mg/kg i.p., post drug vs post blast, FIG. 14A) is reported as “recovered significantly”, the “startle force of the startle-only condition, PPI test” value (blast-exposed rats; acute tinnitus rats, 56 mg/kg i.p., post drug vs post blast, FIG. 14B) is reported as “recovered significantly” and the “gap ratio values (gap/startle-only response)” value (blast-exposed rats; deficit at 7 days after blast, after 5 days of treatment, FIG. 15A) is reported as “recovered significantly”. The “PPI ratio values (PPI/startle-only response)” value (blast-exposed rats; deficit at 7 days after blast, after 5 days of treatment, FIG. 15B) was “recovered significantly”, the tinnitus score (blast-exposed rats; tinnitus 7 days after blast, after 5 days of treatment, FIG. 16A) was “recovered significantly” and the “cumulative distribution of mIPSC frequency (blast-induced shift to lower frequencies)” value (AC pyramidal neurons; 56 mg/kg i.p., Kolmogorov-Smirnov Test p<0.001, FIG. 19) was “reversed this effect”. The “mIPSCs in recording traces of auditory cortical neurons” value (AC pyramidal neurons; blast-exposed rats, drug for five days from day of exposure, vs vehicle-treated, FIG. 17C) was “less reduction in mIPSCs”, the “mIPSC frequency (blast-induced reduction)” value (AC pyramidal neurons; blast-exposed rats, 56 mg/kg i.p. daily, FIG. 18B) was “completely abolished the blast-induced reduction” and the mIPSC amplitude (AC pyramidal neurons; blast-exposed rats, 56 mg/kg i.p., relative to sham-blast controls, FIG. 18A) was “did not significantly change mIPSC amplitudes”. For the same molecule, the “blast-induced microglial activation (Iba-I staining)” value [1] was “not blocked”, the “blast-induced astrocyte TNF-α expression” value (TNF-α; immunostained AC astrocytes, FIG. 24A) was “partially blocked” and the “blast-induced microglial TNF-α expression” value (TNF-α; immunostained microglia, FIG. 23B) was “is blocked”. The “blast-induced astrocyte GFAP expression” value [2] was “is blocked”, the “noise-induced tinnitus (startle-response ratio)” value (C75BL6 mice; 28 mg/kg, FIG. 25) was “prevents noise-induced tinnitus in mice” and the “gap detection performance after noise exposure” value (C75BL6 mice; 123-dB noise 2 h, 28 mg/kg daily for five days, tested day 10 post exposure) was “not significantly altered”. The “mIPSC frequency (noise-induced reduction)” value (Pyramidal neurons; mice, 123-dB noise 2 h, 28 mg/kg daily for five days, day 10, FIG. 26A, 28 mg/kg) was “completely reversed; also recorded: rescues the reduction in mIPSC frequency”, the “mIPSC amplitude (noise-induced reduction)” value (Pyramidal neurons; mice, 123-dB noise 2 h, 28 mg/kg, FIG. 26B) was “rescues the reduction in mIPSC amplitude” and the mEPSC frequency (Pyramidal neurons; noise-exposed treated mice relative to control mice, FIG. 26C) was “no effect”. The mEPSC amplitude (Pyramidal neurons; noise-exposed treated mice relative to control mice, FIG. 26D) was “no significant effect”.
